# Source: patent US20230233569A1 (Revolution Medicines, Inc., priority 2020, published 2023)
# Key:
# [1] = tested on: AKT1/2/3 (Ser473) phosphorylation (mTORC2) in MDA-MB-468 cells; experiment: Cell based AlphaLISA assay, mTOR kinase cellular assay: inhibition of p-Akt (S473) in MDA-MB-468 cells; settings: Homo sapiens, read-out: pIC50 for Inhibition of mTORC1 and mTORC2 Substarte Phosphorylation p-AKT1/2/3-(S473) (converted)
# Summary of the method: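 MDA-MB-468 cells treated with compound at 0.017-1,000 nM for two to four hours at 37° C, then lysed. Phospho-AKT1/2/3 S473, 4EBP1 T37/46 and P70S6K T389 quantified by AlphaLISA SureFire Ultra in duplicate; IC50 from normalized regression with control-based normalization.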
# [2] = tested on: P70S6K (Thr389) phosphorylation (mTORC1) in MDA-MB-468 cells; experiment: Cell based AlphaLISA assay, mTOR kinase cellular assay: inhibition of p-P70S6K (T389) in MDA-MB-468 cells; settings: Homo sapiens, read-out: pIC50 for Inhibition of mTORC1 and mTORC2 Substarte Phosphorylation p-P70S6K-(T389) (converted)
# Procedure: Cell Based AlphaLISA Assays for Determining IC50 For Inhibition of P-Akt (S473), P-4E-BP1 (T37/46), and P-P70S6K (T389) in MDA-MB-468 Cells
# mTOR Kinase Cellular Assay
# To measure functional activity of mTORC1 and mTORC2 in cells the phosphorylation of 4EBP1 (Thr37/46) and P70S6K (Thr389), and AKT1/2/3 (Ser473) was monitored using AlphaLisa SureFire Ultra Kits (Perkin Elmer). MDA-MB-468 cells (ATCC® HTB-132) were cultured in 96-well tissue culture plates and treated with compounds in the disclosure at concentrations varying from 0.017-1,000 nM for two to four hours at 37° C. Incubations were terminated by removal of the assay buffer and addition of lysis buffer provided with the assay kit. Samples were processed according to the manufacturer's instructions. The Alpha signal from the respective phosphoproteins was measured in duplicate using a microplate reader (Envision, Perkin-Elmer or Spectramax M5, Molecular Devices). Inhibitor concentration response curves were analyzed using normalized IC50 regression curve fitting with control based normalization.
# [3] = target: KRAS WT (Homo sapiens, UniProt P01116+P62937); experiment: Ras-Raf disruption / FRET / MOA assay (BRAF RBD); type: biochemical; settings: KRAS WT FRET data IC50, Ras-Raf disruption, with Cyclophilin A
# Summary of the method: (§1)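 TR-FRET in 25 mM HEPES pH 7.3, 100 mM NaCl, 5 mM MgCl2, 0.1% BSA, 0.002% Tween20 with 25 μM Cyclophilin A, 12.5 nM His6-Ras-GMPPNP, 50 nM GST-BRAF RBD; compound 10-point 3-fold series from 30 μM. After 3 h at 25 °C, Eu anti-His/APC anti-GST added for 1.5 h; IC50 from ratio decrease versus DMSO.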
# [4] = target: KRAS Q61H (Homo sapiens, UniProt P01116+P62937, Q61H); experiment: Ras-Raf disruption / FRET / MOA assay (BRAF RBD); type: biochemical
# Summary of the method: as §1
# [5] = target: NRAS G12C (Homo sapiens, UniProt P01111+P62937, G12C); experiment: Ras-Raf disruption / FRET / MOA assay (BRAF RBD); type: biochemical; settings: NRAS G12C FRET data IC50, NRAS G12C
# Summary of the method: as §1
# [6] = target: KRAS G12V (Homo sapiens, UniProt P01116+P62937, G12V); experiment: Ras-Raf disruption / FRET / MOA assay (BRAF RBD); type: biochemical; settings: KRAS G12V FRET data IC50, Ras-Raf disruption, with Cyclophilin A
# Summary of the method: as §1
# [7] = target: KRAS G12D (Homo sapiens, UniProt P01116+P62937, G12D); experiment: Ras-Raf disruption / FRET / MOA assay (BRAF RBD); type: biochemical; settings: KRAS G12D FRET data IC50, Ras-Raf disruption, with Cyclophilin A
# Summary of the method: as §1
# [8] = target: KRAS G12S (Homo sapiens, UniProt P01116+P62937, G12S); experiment: Ras-Raf disruption / FRET / MOA assay (BRAF RBD); type: biochemical; settings: KRAS G12S FRET data IC50, Ras-Raf disruption, with Cyclophilin A
# Summary of the method: as §1
# [9] = target: KRAS G13C (Homo sapiens, UniProt P01116+P62937, G13C); experiment: Ras-Raf disruption / FRET / MOA assay (BRAF RBD); type: biochemical; settings: KRAS G13C FRET data IC50, Ras-Raf disruption, with Cyclophilin A
# Summary of the method: as §1
# [10] = target: NRAS WT (Homo sapiens, UniProt P01111+P62937); experiment: Ras-Raf disruption / FRET / MOA assay (BRAF RBD); type: biochemical
# Summary of the method: as §1
# [11] = target: NRAS Q61K (Homo sapiens, UniProt P01111+P62937, Q61K); experiment: Ras-Raf disruption / FRET / MOA assay (BRAF RBD); type: biochemical
# Summary of the method: as §1
# [12] = target: KRAS G13D (Homo sapiens, UniProt P01116+P62937, G13D); experiment: Ras-Raf disruption / FRET / MOA assay (BRAF RBD); type: biochemical; settings: KRAS G13D FRET data IC50, Ras-Raf disruption, with Cyclophilin A
# Summary of the method: as §1
# [13] = target: NRAS Q61R (Homo sapiens, UniProt P01111+P62937, Q61R); experiment: Ras-Raf disruption / FRET / MOA assay (BRAF RBD); type: biochemical
# Summary of the method: as §1
# [14] = tested on: AsPC-1 (K-Ras G12D); experiment: Potency assay: pERK; type: cell-based; settings: Homo sapiens, ASPC1, read-out: pERK EC50
# [15] = tested on: AsPC-1 (K-Ras G12D); experiment: CellTiter-Glo cell viability assay; type: cell-based; settings: Homo sapiens, ASPC1, 120 h, read-out: AsPC-1 Cell Viability assay data IC50, K-Ras G12D, 5-day treatment
# Summary of the method: (§2)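 Luminescence from CellTiter-Glo serves as the viability read-out after cells are treated with compound for 5 days. Each well's signal is divided by the DMSO average and multiplied by 100, and curves are fitted by four-parameter logistic regression.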
# [16] = tested on: NCI-H358 (K-Ras G12C); experiment: CellTiter-Glo cell viability assay; type: cell-based; settings: Homo sapiens, NCI-H358, 120 h, read-out: H358 Cell Viability assay data IC50, K-Ras G12C, 5-day treatment
# Summary of the method: as §2
# [17] = target: KRAS G12C (Homo sapiens, UniProt P01116+P62937, G12C); experiment: Ras-Raf disruption / FRET / MOA assay (BRAF RBD); type: biochemical; settings: KRAS G12C FRET data IC50, Ras-Raf disruption, with Cyclophilin A
# Summary of the method: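 His6-K-Ras G12C-GMPPNP (12.5 nM), GST-BRAF RBD (50 nM) and tagless Cyclophilin A (25 μM) incubated 3 h at 25 °C with compound (10-point 3-fold series from 30 μM), pH 7.3 HEPES buffer. Anti-His Eu/anti-GST APC added for 1.5 h; decreased TR-FRET ratio vs DMSO gives IC50.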
# Sequence of KRAS G12D (P01116 1-169 isoform P01116-2 G12D limits assumed): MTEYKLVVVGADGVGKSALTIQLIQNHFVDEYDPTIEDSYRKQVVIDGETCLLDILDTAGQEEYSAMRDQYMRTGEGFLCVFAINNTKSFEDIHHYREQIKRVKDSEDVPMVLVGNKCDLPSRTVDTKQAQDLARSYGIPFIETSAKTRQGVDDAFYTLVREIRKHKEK
# Sequence of KRAS G12D (P62937 whole entry): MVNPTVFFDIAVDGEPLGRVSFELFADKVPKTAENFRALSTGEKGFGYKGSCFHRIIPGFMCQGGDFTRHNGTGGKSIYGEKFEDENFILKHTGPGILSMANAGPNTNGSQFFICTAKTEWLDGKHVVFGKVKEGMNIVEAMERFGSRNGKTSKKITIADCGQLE
# Sequence of NRAS WT (P01111 whole entry): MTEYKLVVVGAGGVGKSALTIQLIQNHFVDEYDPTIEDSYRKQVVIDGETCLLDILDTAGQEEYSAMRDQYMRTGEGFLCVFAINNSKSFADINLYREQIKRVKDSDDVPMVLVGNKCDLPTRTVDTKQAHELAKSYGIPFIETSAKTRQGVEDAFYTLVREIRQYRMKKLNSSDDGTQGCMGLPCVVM
# Sequence of NRAS WT (P62937 whole entry): as the sequence (P62937 whole entry) above
# Sequence of NRAS Q61R (P01111 whole entry Q61R): as the sequence (P01111 whole entry) above, with Q61R counted along it
# Sequence of NRAS Q61R (P62937 whole entry): as the sequence (P62937 whole entry) above
# Sequence of KRAS Q61H (P01116 1-169 isoform P01116-2 Q61H limits assumed): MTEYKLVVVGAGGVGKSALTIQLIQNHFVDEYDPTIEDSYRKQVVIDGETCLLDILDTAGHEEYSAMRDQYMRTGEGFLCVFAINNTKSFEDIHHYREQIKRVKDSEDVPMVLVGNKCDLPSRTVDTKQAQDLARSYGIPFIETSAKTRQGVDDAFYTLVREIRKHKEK
# Sequence of KRAS Q61H (P62937 whole entry): as the sequence (P62937 whole entry) above
# Sequence of KRAS G13D (P01116 1-169 isoform P01116-2 G13D limits assumed): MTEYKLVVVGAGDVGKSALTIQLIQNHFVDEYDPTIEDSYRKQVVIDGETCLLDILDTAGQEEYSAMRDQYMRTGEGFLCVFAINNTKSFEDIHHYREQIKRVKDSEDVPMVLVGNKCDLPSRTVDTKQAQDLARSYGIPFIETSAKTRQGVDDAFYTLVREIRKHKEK
# Sequence of KRAS G13D (P62937 whole entry): as the sequence (P62937 whole entry) above
# Sequence of NRAS G12C (P01111 whole entry G12C): as the sequence (P01111 whole entry) above, with G12C counted along it
# Sequence of NRAS G12C (P62937 whole entry): as the sequence (P62937 whole entry) above
# Sequence of NRAS Q61K (P01111 whole entry Q61K): as the sequence (P01111 whole entry) above, with Q61K counted along it
# Sequence of NRAS Q61K (P62937 whole entry): as the sequence (P62937 whole entry) above
# Sequence of KRAS G12S (P01116 1-169 isoform P01116-2 G12S limits assumed): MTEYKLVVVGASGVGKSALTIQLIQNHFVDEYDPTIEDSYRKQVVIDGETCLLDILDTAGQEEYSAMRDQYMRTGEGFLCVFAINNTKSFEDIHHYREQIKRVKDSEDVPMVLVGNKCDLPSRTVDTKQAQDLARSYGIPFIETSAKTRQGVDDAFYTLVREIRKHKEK
# Sequence of KRAS G12S (P62937 whole entry): as the sequence (P62937 whole entry) above
# Sequence of KRAS G12C (P01116 1-169 isoform P01116-2 G12C limits assumed): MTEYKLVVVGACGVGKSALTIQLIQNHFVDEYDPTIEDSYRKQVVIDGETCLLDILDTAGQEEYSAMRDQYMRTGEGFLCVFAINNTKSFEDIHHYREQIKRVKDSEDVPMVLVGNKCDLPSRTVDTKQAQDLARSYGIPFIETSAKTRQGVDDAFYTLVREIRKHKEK
# Sequence of KRAS G12C (P62937 whole entry): as the sequence (P62937 whole entry) above
# Sequence of KRAS WT (P01116 1-169 isoform P01116-2 limits assumed): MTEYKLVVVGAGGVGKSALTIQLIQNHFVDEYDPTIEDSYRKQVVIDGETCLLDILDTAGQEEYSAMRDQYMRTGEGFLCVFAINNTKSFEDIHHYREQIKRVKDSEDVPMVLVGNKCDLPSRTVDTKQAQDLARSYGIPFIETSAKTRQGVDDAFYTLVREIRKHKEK
# Sequence of KRAS WT (P62937 whole entry): as the sequence (P62937 whole entry) above
# Sequence of KRAS G12V (P01116 1-169 isoform P01116-2 G12V limits assumed): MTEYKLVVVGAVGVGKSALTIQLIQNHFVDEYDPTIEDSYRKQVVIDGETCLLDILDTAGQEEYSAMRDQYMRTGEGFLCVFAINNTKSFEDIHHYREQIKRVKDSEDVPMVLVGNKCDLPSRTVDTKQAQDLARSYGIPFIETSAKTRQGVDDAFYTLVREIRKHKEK
# Sequence of KRAS G12V (P62937 whole entry): as the sequence (P62937 whole entry) above
# Sequence of KRAS G13C (P01116 1-169 isoform P01116-2 G13C limits assumed): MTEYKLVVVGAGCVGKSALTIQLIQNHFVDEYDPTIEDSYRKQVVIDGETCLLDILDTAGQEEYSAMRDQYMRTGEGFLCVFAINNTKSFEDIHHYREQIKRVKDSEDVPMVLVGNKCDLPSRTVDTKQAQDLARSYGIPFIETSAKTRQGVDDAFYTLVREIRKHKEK
# Sequence of KRAS G13C (P62937 whole entry): as the sequence (P62937 whole entry) above
SMILES,IC50 [1],IC50 [2],IC50 [3],IC50 [4],IC50 [5],IC50 [6],IC50 [7],IC50 [8],IC50 [9],IC50 [10],IC50 [11],IC50 [12],IC50 [13],EC50 [14],IC50 [15],IC50 [16],IC50 [17]
CO[C@H]1C[C@@H]2CC[C@@H](C)[C@@](O)(O2)C(=O)C(=O)N2CCCC[C@H]2C(=O)O[C@H]([C@H](C)C[C@@H]2CC[C@@H](OC(=O)NCc3cnc(N4CCN(c5ncc(C(=O)N6CCN(c7ncc(C(=O)N8CCc9cc(Cn%10nc(-c%11cnc%12[nH]ccc%12c%11)c%11c(N)ncnc%11%10)ccc9C8)cn7)CC6)cn5)CC4)nc3)[C@H](OC)C2)CC(=O)[C@H](C)/C=C(\C)[C@@H](O)[C@@H](OC)C(=O)[C@H](C)C[C@H](C)/C=C/C=C/C=C/1C [Example 61],> 1000 nM,≤ 1 nM,,,,,,,,,,,,,,,
CCn1c(-c2cccnc2[C@H](C)OC)c2c3cc(ccc31)-c1cc(O)cc(c1)C[C@H](NC(=O)[C@H](C(C)C)N(C)C(=O)CN(C)C(=O)[C@@H]1CN1CCCC#N)C(=O)N1CCC[C@H](N1)C(=O)OCC(C)(C)C2 (some centres unmarked) [Example 274],,,10 to 100 nM,10 to 100 nM,< 10 nM,10 to 100 nM,10 to 100 nM,10 to 100 nM,10 to 100 nM,10 to 100 nM,100 to 1000 nM,10 to 100 nM,100 to 1000 nM,< 5000 nM,100 to 1000 nM,< 10 nM,< 10 nM
CCn1c(-c2cccnc2[C@H](C)OC)c2c3cc(ccc31)-c1cc(O)cc(c1)C[C@H](NC(=O)[C@H](C(C)C)N(C)C(=O)CN(C)C(=O)[C@@H]1CN1C1COC1)C(=O)N1CCC[C@H](N1)C(=O)OCC(C)(C)C2 (some centres unmarked) [Example 276],,,10 to 100 nM,10 to 100 nM,< 10 nM,10 to 100 nM,10 to 100 nM,10 to 100 nM,10 to 100 nM,10 to 100 nM,100 to 1000 nM,10 to 100 nM,100 to 1000 nM,< 5000 nM,1000 to 10000 nM,10 to 100 nM,10 to 100 nM
CCn1c(-c2cccnc2[C@H](C)OC)c2c3cc(ccc31)-c1cc(O)cc(c1)C[C@H](NC(=O)[C@H](C(C)C)N(C)C(=O)CN(C)C(=O)[C@H]1CN1CC1COC1)C(=O)N1CCC[C@H](N1)C(=O)OCC(C)(C)C2 (some centres unmarked) [Example 277],,,100 to 1000 nM,10 to 100 nM,10 to 100 nM,100 to 1000 nM,100 to 1000 nM,10 to 100 nM,10 to 100 nM,100 to 1000 nM,100 to 1000 nM,100 to 1000 nM,1000 to 10000 nM,< 5000 nM,100 to 1000 nM,10 to 100 nM,10 to 100 nM
CCn1c(-c2cccnc2[C@H](C)OC)c2c3cc(ccc31)-c1cc(O)cc(c1)C[C@H](NC(=O)[C@H](C(C)C)N(C)C(=O)CN(C)C(=O)[C@H]1CN1CC1(C)COC1)C(=O)N1CCC[C@H](N1)C(=O)OCC(C)(C)C2 (some centres unmarked) [Example 279],,,10 to 100 nM,10 to 100 nM,10 to 100 nM,10 to 100 nM,100 to 1000 nM,10 to 100 nM,10 to 100 nM,10 to 100 nM,100 to 1000 nM,100 to 1000 nM,100 to 1000 nM,< 5000 nM,100 to 1000 nM,< 10 nM,10 to 100 nM
CCn1c(-c2cccnc2[C@H](C)OC)c2c3cc(ccc31)-c1cc(O)cc(c1)C[C@H](NC(=O)[C@H](C(C)C)N(C)C(=O)CN(C)C(=O)[C@@H]1CN1CC1(C)COC1)C(=O)N1CCC[C@H](N1)C(=O)OCC(C)(C)C2 (some centres unmarked) [Example 280],,,10 to 100 nM,10 to 100 nM,< 10 nM,10 to 100 nM,10 to 100 nM,10 to 100 nM,10 to 100 nM,10 to 100 nM,100 to 1000 nM,100 to 1000 nM,100 to 1000 nM,< 5000 nM,1000 to 10000 nM,< 10 nM,< 10 nM
CCn1c(-c2cccnc2[C@H](C)OC)c2c3cc(ccc31)-c1cc(O)cc(c1)C[C@H](NC(=O)[C@H](C(C)C)N(C)C(=O)CN(C)C(=O)[C@@H]1N[C@H]1C1COC1)C(=O)N1CCC[C@H](N1)C(=O)OCC(C)(C)C2 [Example 283],,,10 to 100 nM,10 to 100 nM,10 to 100 nM,10 to 100 nM,10 to 100 nM,10 to 100 nM,< 10 nM,10 to 100 nM,100 to 1000 nM,10 to 100 nM,100 to 1000 nM,< 5000 nM,100 to 1000 nM,10 to 100 nM,10 to 100 nM
CCn1c(-c2cccnc2[C@H](C)OC)c2c3cc(ccc31)-c1cc(O)cc(c1)C[C@H](NC(=O)[C@H](C(C)C)N(C)C(=O)CN(C)C(=O)[C@@H]1N[C@@H]1C1CCC1)C(=O)N1CCC[C@H](N1)C(=O)OCC(C)(C)C2 [Example 287],,,10 to 100 nM,10 to 100 nM,10 to 100 nM,10 to 100 nM,10 to 100 nM,10 to 100 nM,10 to 100 nM,10 to 100 nM,100 to 1000 nM,100 to 1000 nM,100 to 1000 nM,< 5000 nM,100 to 1000 nM,10 to 100 nM,10 to 100 nM
CCn1c(-c2cccnc2[C@H](C)OC)c2c3cc(ccc31)-c1cc(O)cc(c1)C[C@H](NC(=O)[C@H](C(C)C)N(C)C(=O)CN(C)C(=O)[C@H]1N[C@H]1C1CCC1)C(=O)N1CCC[C@H](N1)C(=O)OCC(C)(C)C2 [Example 288],,,10 to 100 nM,10 to 100 nM,10 to 100 nM,10 to 100 nM,100 to 1000 nM,10 to 100 nM,10 to 100 nM,10 to 100 nM,100 to 1000 nM,10 to 100 nM,100 to 1000 nM,< 5000 nM,100 to 1000 nM,10 to 100 nM,10 to 100 nM
